According to patent US8901337B2, “Metal complexes having dual histone deacetylase inhibitory and DNA-binding activity” (Royal College of Surgeons in Ireland, priority 2009, dated 2014):
Like-named read-outs stand apart in the source and are kept apart here.

How the values were obtained:
[1] = system: ovarian cancer cell line A2780 P; experiment: MTS in vitro cytotoxicity, A2780 P; format: cell-based, human
Method: (§1) Cells were cultured in the appropriate media. […] In order to retain resistance 1 μM cisplatin was added to the media of the A2780 cisR cells every third passage. A2780 cisR cells are resistant to cisplatin through a combination of decreased uptake, enhanced DNA repair/tolerance, and elevated reduced glutathione levels
(§2) All cells were kept in a humidified atmosphere with 5% CO2 at 37° C.; cells from confluent monolayers were removed from flasks by trypsin/EDTA solution and their viability determined by the trypan blue exclusion test.
(§3) Cell growth was determined by the [3-(4,5-dimethylthiazol-2-yl)-5-(3-carboxymethoxyphenyl)-2-(4-sulfophenyl)-2H-tetrazolium, inner salt, (MTS test, Promega, Southampton, UK), a colorimetric assay based on the ability of the viable cells to reduce a soluble yellow tetrazolium salt to blue formazan. 10,000 ovarian cancer cells or 3,000 fibroblast cells for example were seeded per well onto 96-well plates in 100 μl of the appropriate culture medium. 24 hr after sowing the cells, the media was removed and the cells were treated by adding 100 μl of the compound media solutions at the appropriate concentrations. cis-[Pt(NH3)2(malSAHA−2H)], cisplatin and cis-[Pt(NH3)2(mal)] were prepared freshly in cell culture media. […] The maximum percentage of dmso present in any well was less than 0.1% (v/v). cis-[Pt(NH3)2(malBel—2H)], belinostat and malbelinostat were freshly prepared in dimethyl formamide (DMF) and diluted in culture media prior to the MTS assay. The maximum percentage of DMF present in any well was 0.5% (v/v). A range of concentrations between 1 μM and 100 μM was used.
(§4) After 72 hr of treatment, 20 μl of the MTS reagent was added to each well and the plates incubated for 2 hr at 37° C. […] The percentages of surviving cells relative to untreated controls were determined.

[2] = system: cisplatin resistant ovarian cancer cell line A2780 cisR; experiment: MTS in vitro cytotoxicity, A2780 cisR; format: cell-based, human
Method: as §1, §2, §3, §4

[3] = system: non-tumorigenic human dermal fibroblast cell line (NHDF); experiment: MTS in vitro cytotoxicity, NHDF; format: cell-based
Method: In addition Normal Neonatal Human Dermal Fibroblast, NHDF, cells were cultured in Fibroblast Basal Medium (FBM®, Clonetics, Walkersville, USA) supplemented with hFGF-B, insulin, 5% FBS and gentamicin/amphotericin-B (FGM®-2 SingleQuots, Clonetics, Walkersville, USA).
as §2, §3, §4

[4] = system: cell line (CH1); experiment: MTS in vitro cytotoxicity, CH1; format: cell-based; details: 72 hours, Table 1, read-out: IC50 values against CH1
Method: as §2, §3, §4

[5] = system: breast cancer cell line (SKBR); experiment: MTS in vitro cytotoxicity, SKBR; format: cell-based; details: 72 hours, Table 1, read-out: IC50 values against SKBR
Method: as §2, §3, §4

[6] = system: SKBR (breast cancer cells); experiment: Cellular uptake of Pt (FAAS), SKBR; format: cell-based; details: 10 μM, 72 hours treatment
Method: (§5) Cellular uptake of Pt compounds was measured in SKBR, SW480, A549, A2780P and CH1 cells. The cells were seeded in 60 mm tissue culture dishes with 10 mL of their respective medium and after overnight incubation, the cells were treated with the Pt complexes for 72 h at 10 μM concentration. The cell monolayers at the end of the incubation with the Pt complexes were washed (twice) with ice-cold phosphate buffered saline (PBS), trypsinized and harvested into cold (4° C.) PBS. Cell suspensions were centrifuged and the pellets were stored in PBS at −80° C. until assayed. Afterward, the pellets were digested by high pressure microwave mineralization and Pt content was determined by flameless atomic absorption spectrophotometry (FAAS). The results of cellular Pt uptake were corrected for adsorption effects. All experiments were made in triplicate.^17

[7] = system: A549 (lung cancer cells); experiment: Cellular uptake of Pt (FAAS), A549; format: cell-based; details: 10 μM, 72 hours treatment
Method: as §5

[8] = system: DNA in CH1 cells (lymphoma); experiment: Pt binding to DNA in cultured cells (ICP-MS), CH1; format: cell-based; details: 43 μM of Pt complexes, 2 hours of cell treatment
Method: (§6) Pt DNA binding of Pt complexes was measured in SW480 cells (colon cancer) and CH1 cells (lymphoma) or alternatively A2780 P and A2780 cisR cells (sensitive and resistant to cisplatin respectively). The cells were seeded in 60 mm tissue culture dishes with 10 ml of their respective medium. After overnight incubation the medium was removed and replaced with 10 ml of the respective medium containing a platinum complex giving a final concentration of 43 or 40 μM depending on the experiment. The cells were incubated with a given Pt complex for either 2 or 4 h depending on the experiment. The cells were trypsinised and centrifuged. The supernantant was removed and the cells washed twice with 1×PBS and centrifuged. The pellet was re-suspended in DNA buffer to which Proteinase K (20 mg/mL) and 10% SDS were added. After a gentle shake and incubation at 45° C. for two hours, RNAse (100 mg/mL) was added and the cells were incubated at 37° C. overnight. The volume of supernatant was noted and an equal volume of phenol was added.
The resulting mixture was shook for 10 min, then centrifuged for 10 min at 10° C. The supernatant was transferred into a new centrifuge tube (15 ml) and the volume was noted. […] The absorbance of the DNA by was measured by UV spectrophotometry at 260 nm and 280 nm and the concentration of DNA calculated. Platinum bound to DNA was determined by ICP-MS.

[9] = system: colon cancer cell line (SW480); experiment: MTS in vitro cytotoxicity, SW480; format: cell-based; details: 72 hours, Table 1, read-out: IC50 values against SW480
Method: as §2, §3, §4

[10] = system: A2780 P (ovarian cancer cells); experiment: Cellular uptake of Pt (FAAS), A2780 P; format: cell-based, human; details: 10 μM, 72 hours treatment
Method: as §5, with “The cells were seeded in 60 mm tissue culture dishes with 10 mL of their respective medium and after overnight incubation, the cells were treated with the Pt complexes for 72 h at 10 μM concentration.” left out

[11] = system: liver cell lines (Hep-G2); experiment: MTS in vitro cytotoxicity, Hep-G2; format: cell-based; details: 72 hours, Table 1, read-out: IC50 values against Hep-G2
Method: as §2, §3, §4

[12] = system: SW480 (colon cancer cells); experiment: Cellular uptake of Pt (FAAS), SW480; format: cell-based; details: 10 μM, 72 hours treatment
Method: as §5

[13] = system: DNA in SW480 cells (colon cancer); experiment: Pt binding to DNA in cultured cells (ICP-MS), SW480; format: cell-based; details: 43 μM of Pt complexes, 2 hours of cell treatment
Method: as §6
The resulting mixture was shook for 10 min, then centrifuged for 10 min at 10° C. The supernatant was transferred into a new centrifuge tube (15 ml) and the volume was noted. To this was added an equal volume of phenol and chloroform/isoamylalcohol (24:1). The resulting mixture was shook for 10 min, then centrifuged for 10 min at 10° C. (3000 RPM). The supernatant was transferred into a new centrifuge tube (15 mL) and the volume was noted. To this was added an equal volume of chloroform. The resulting mixture was shook for 10 min, then centrifuged for 10 min at 10° C. The supernatant was transferred into a new centrifuge tube (15 mL) and the volume was noted. To this was added a volume that is 1/10 of the supernatant of 3 M sodium acetate (Ph 5.2) and three times the volume of cold 100% isopropanol (from freezer). The solution was shook gently until the DNA is precipitated. […] The absorbance of the DNA by was measured by UV spectrophotometry at 260 nm and 280 nm and the concentration of DNA calculated. Platinum bound to DNA was determined by ICP-MS.

[14] = system: lung cancer cell line (A549); experiment: MTS in vitro cytotoxicity, A549; format: cell-based; details: 72 hours, Table 1, read-out: IC50 values against A549
Method: as §2, §3, §4

[15] = system: CH1 (cancer cells); experiment: Cellular uptake of Pt (FAAS), CH1; format: cell-based; details: 10 μM, 72 hours treatment
Method: as §5

[16] = molecular target: T1, HDAC1 (Homo sapiens, UniProt Q13547); experiment: Cayman HDAC1 Inhibitor Screening Assay Kit (fluorescence); format: biochemical
T1 construct: purchased Cayman Chemicals, Ann Arbor, USA
Method: The assay provides a fast two-step fluorescence-based method for measuring HDAC activity. Briefly, in the first step an acetylated lysine residue was incubated with HDAC1 and potential inhibitors. Deacetylation sensitises the substrate so that treatment with the HDAC developer in the second step releases a fluorescent product. The fluorescent reaction product was analysed using a plate reader with an excitation wavelengths of 350 nm and emission wavelengths of 460 nm.

T1 sequence (Q13547 whole entry): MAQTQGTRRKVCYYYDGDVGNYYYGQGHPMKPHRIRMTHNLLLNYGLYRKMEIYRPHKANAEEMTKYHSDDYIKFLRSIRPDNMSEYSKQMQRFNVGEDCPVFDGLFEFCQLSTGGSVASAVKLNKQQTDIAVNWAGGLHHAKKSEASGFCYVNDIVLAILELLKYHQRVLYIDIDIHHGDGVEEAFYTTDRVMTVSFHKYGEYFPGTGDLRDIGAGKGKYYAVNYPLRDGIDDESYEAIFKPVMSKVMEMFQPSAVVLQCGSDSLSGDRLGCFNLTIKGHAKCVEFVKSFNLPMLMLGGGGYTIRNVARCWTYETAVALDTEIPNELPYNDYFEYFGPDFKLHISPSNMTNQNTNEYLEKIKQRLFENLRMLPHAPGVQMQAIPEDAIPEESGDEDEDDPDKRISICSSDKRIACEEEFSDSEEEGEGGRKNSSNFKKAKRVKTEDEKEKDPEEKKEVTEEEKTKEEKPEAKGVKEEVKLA

O=C(/C=C/c1cccc(S(=O)(=O)Nc2ccccc2)c1)NO [belinostat, reference compound]
IC50 ([1]; Homo sapiens, A2780, 72 h, read-out: IC50 (μM) ± S.E.M. against A2780P): < 1 µM
IC50 ([2]; Homo sapiens, A2780cisR, 72 h, read-out: IC50 (μM) ± S.E.M. against A2780CisR): < 1 µM
IC50 ([3]; Homo sapiens, NHDF, 72 h, read-out: IC50 (μM) ± S.E.M. against NHDF): 3 ± 0.5 µM

[NH2][Pt]1([NH2])[O]C(=O)CC(=O)[O]1 [cis-[Pt(NH3)2(mal)]]
IC50 [4]: 2.5 ± 0.5 µM
IC50 ([1]; 72 hours, MTS, Table 1, read-out: IC50 values against A2780 P): 16 ± 4.3 µM
IC50 [5]: 14.6 ± 2.5 µM
Uptake of Pt complexes into SKBR [6]: 488.15 ± 38.4 pmol Pt/2 × 10^6 cell
Uptake of Pt complexes into A549 [7]: 357.1 ± 47.1 pmol Pt/2 × 10^6 cell
DNA-bound Pt in CH1 [8]: 1.76 · 10^−15 moles of Pt/μg of DNA
IC50 [9]: 23.2 ± 1.5 µM
Uptake of Pt complexes into A2780 P [10]: 220.95 ± 10.95 pmol Pt/2 × 10^6 cell
IC50 ([2]; 72 hours, MTS, Table 1, read-out: IC50 values against A2780cisR): 81 ± 5.8 µM
IC50 [11]: 44.5 ± 0.9 µM
IC50 ([3]; 72 hours, MTS, Table 1, read-out: IC50 values against NHDF): 48 ± 2.2 µM
Uptake of Pt complexes into SW480 [12]: 127.35 ± 27.4 pmol Pt/2 × 10^6 cell
DNA-bound Pt in SW480 [13]: 1.25 · 10^−15 moles of Pt/μg of DNA
IC50 [14]: 6.3 µM
Uptake of Pt complexes into CH1 [15]: 282.6 ± 20.6 pmol Pt/2 × 10^6 cell

O=C(/C=C/c1ccc(S(=O)(=O)Nc2ccc(CC(C(=O)O)C(=O)O)cc2)cc1)NO [malBel]
IC50 ([1]; 72 hours, MTS, Table 5, read-out: IC50 (μM) ± S.E.M. against A2780P): 45.8 µM
IC50 ([2]; 72 hours, MTS, Table 5, read-out: IC50 (μM) ± S.E.M. against A2780CisR): 32.1 µM
IC50 ([3]; 72 hours, MTS, Table 5, read-out: IC50 (μM) ± S.E.M. against NHDF): 28.9 µM

O=C(CCCCCCC(=O)Nc1ccc(CC(C(=O)O)C(=O)O)cc1)NO [malSAHA]
inhibition of HDAC1 (in words) [16]: inhibit HDAC1
IC50 ([16]; at 200 μM): 0.0595 µM
